The record followed here is patent publication US8034924B2, “Process for production of crystal of purine nucleoside compound” (Ajinomoto Co., Inc., priority 2007, dated 2011).

A short description of one data set: Storage stability of crystals of 2′,3′-dideoxyinosine (increase of hypoxanthine after storage, HPLC). In kind it is physicochemical. To be noted: crystals stored at 60° C., at RH75% for 7 days; Table 1. The protocol:
In order to examine the storage stability, the obtained crystals were stored at 60° C., at RH75% for 7 days.
The concentration of the phosphate on the surface of the crystals and the amount of hypoxanthine were analyzed in the conditions shown in the following Table 2.
Regarding `OC[C@@H]1CC[C@H](n2cnc3c(O)ncnc32)O1` [Comp. Ex. 1, 2′,3′-dideoxyinosine, reference compound], the “Increase of hypoxanthine after storage (%/DDI)” value (from here on “Increase … (%/DDI)”) was 2.24 %/DDI.
Still for that read-out and setting: with `OC[C@@H]1CC[C@H](n2cnc3c(O)ncnc32)O1` [Comp. Ex. 2, 2′,3′-dideoxyinosine, reference compound] the figure was 1.91 %/DDI; with `OC[C@@H]1CC[C@H](n2cnc3c(O)ncnc32)O1` [Comp. Ex. 3, 2′,3′-dideoxyinosine, reference compound], 2.21 %/DDI.
As to `OC[C@@H]1CC[C@H](n2cnc3c(O)ncnc32)O1` [Comp. Ex. 4, 2′,3′-dideoxyinosine, reference compound], the “Increase … (%/DDI)” value was 2.20 %/DDI.
Still for that read-out and setting: next, `OC[C@@H]1CC[C@H](n2cnc3c(O)ncnc32)O1` [Ex. 1, 2′,3′-dideoxyinosine]: 0.45 %/DDI.
Still for that read-out and setting: with `OC[C@@H]1CC[C@H](n2cnc3c(O)ncnc32)O1` [Ex. 2, 2′,3′-dideoxyinosine] the figure was 0.48 %/DDI; with `OC[C@@H]1CC[C@H](n2cnc3c(O)ncnc32)O1` [Ex. 3, 2′,3′-dideoxyinosine], 0.20 %/DDI.
The same measure, in the same setting: with `OC[C@@H]1CC[C@H](n2cnc3c(O)ncnc32)O1` [Ex. 4, 2′,3′-dideoxyinosine] the figure was 0.54 %/DDI.

The data set is the same for the next values; noted with them: crystals stored at 60° C., at RH75% for 7 days; Table 3, phosphate removed by suspending in water vs Example 3.
Turning to `OC[C@@H]1CC[C@H](n2cnc3c(O)ncnc32)O1` [Comp. Ex. 5, 2′,3′-dideoxyinosine, reference compound], the “Increase … (%/DDI)” value was 4.32 %/DDI.
Still for that read-out and setting: with `OC[C@@H]1CC[C@H](n2cnc3c(O)ncnc32)O1` [Ex. 3, 2′,3′-dideoxyinosine] the figure was 0.20 %/DDI.

Staying with this data set, now noted: crystals stored at 60° C., at RH75% for 7 days; Table 4, degree of washing changed per sample.
With `OC[C@@H]1CC[C@H](n2cnc3c(O)ncnc32)O1` [Comp. Ex. 6, 2′,3′-dideoxyinosine, reference compound], the “Increase … (%/DDI)” value is on record as 2.47 %/DDI.
As for `OC[C@@H]1CC[C@H](n2cnc3c(O)ncnc32)O1` [Comp. Ex. 7, 2′,3′-dideoxyinosine, reference compound], the “Increase … (%/DDI)” value is 2.24 %/DDI.
Still for that read-out and setting: next, `OC[C@@H]1CC[C@H](n2cnc3c(O)ncnc32)O1` [Comp. Ex. 8, 2′,3′-dideoxyinosine, reference compound]: 2.20 %/DDI.
On the same count and under the same terms, with `OC[C@@H]1CC[C@H](n2cnc3c(O)ncnc32)O1` [Comp. Ex. 9, 2′,3′-dideoxyinosine, reference compound] the figure was 2.21 %/DDI; with `OC[C@@H]1CC[C@H](n2cnc3c(O)ncnc32)O1` [Comp. Ex. 10, 2′,3′-dideoxyinosine, reference compound], 1.91 %/DDI.
On the same count and under the same terms, with `OC[C@@H]1CC[C@H](n2cnc3c(O)ncnc32)O1` [Ex. 5, 2′,3′-dideoxyinosine] the figure was 1.38 %/DDI; with `OC[C@@H]1CC[C@H](n2cnc3c(O)ncnc32)O1` [Ex. 6, 2′,3′-dideoxyinosine], 1.03 %/DDI; with `OC[C@@H]1CC[C@H](n2cnc3c(O)ncnc32)O1` [Ex. 7, 2′,3′-dideoxyinosine], 1.19 %/DDI.
Regarding `OC[C@@H]1CC[C@H](n2cnc3c(O)ncnc32)O1` [Ex. 8, 2′,3′-dideoxyinosine], the “Increase … (%/DDI)” value is recorded as 0.90 %/DDI.
Still for that read-out and setting: next, `OC[C@@H]1CC[C@H](n2cnc3c(O)ncnc32)O1` [Ex. 9, 2′,3′-dideoxyinosine]: 0.70 %/DDI; `OC[C@@H]1CC[C@H](n2cnc3c(O)ncnc32)O1` [Ex. 10, 2′,3′-dideoxyinosine]: 0.97 %/DDI.
The same measure, in the same setting: with `OC[C@@H]1CC[C@H](n2cnc3c(O)ncnc32)O1` [Ex. 11, 2′,3′-dideoxyinosine] the figure was 0.90 %/DDI.
Still for that read-out and setting: next, `OC[C@@H]1CC[C@H](n2cnc3c(O)ncnc32)O1` [Ex. 12, 2′,3′-dideoxyinosine]: 1.26 %/DDI.
Take `OC[C@@H]1CC[C@H](n2cnc3c(O)ncnc32)O1` [Ex. 13, 2′,3′-dideoxyinosine]: the “Increase … (%/DDI)” value came out at 1.04 %/DDI.
